Source: US20250163043A1 (TRANSTHERA SCIENCES (NANJING), INC., priority 2021, published 2025)

Target: CDK9/CycT1 (Homo sapiens, UniProt P50750)
Assay: Off-chip mobility shift assay (MSA) on CDK9/CycT1
Type: biochemical
Parameters: Full-length human CDK9 [1-372(end) amino acids of; host or cells: baculovirus expression system
Settings: 4-point concentration (0.0016, 0.008, 0.04, 0.2 uM), ATP 10 μM, reaction time 5 hours, read-out: CDK9/CycT1/nM (inhibitory activity)
Experimental: Prepare 100× concentrated Test compound stock solutions with DMSO. Then, Dilute the solution 25 times with Assay Buffer (20 mM HEPES, 0.01% Triton X-100, 2 mM DTT, pH7.5) to prepare 4× test compound solutions.
Test compounds were evaluated at 4-point concentration (0.0016, 0.008, 0.04, 0.2 uM). • 1) Mix 5 μL of 4× test compound solution with 5 μL of 4× substrate/ATP/Metal solution and 10 μL of 2× kinase solution in 384-well polypropylene plate. Incubate for 5 hours at room temperature. • 2) Add 70 μL of Termination Buffer (QuickScout Screening Assist MSA; Carna Biosciences) to stop the reaction. • 3) Separate and detect unphosphorylated/phosphorylated substrate peptides in the reactant using LabChip system (Perkin Elmer). • 4) Evaluate kinase reaction from product ratio (P/(P+S)) calculated by peak height of unphosphorylated substrate(S) and peak height of phosphorylated substrate (P).

Sequence of CDK9/CycT1 (P50750 whole entry): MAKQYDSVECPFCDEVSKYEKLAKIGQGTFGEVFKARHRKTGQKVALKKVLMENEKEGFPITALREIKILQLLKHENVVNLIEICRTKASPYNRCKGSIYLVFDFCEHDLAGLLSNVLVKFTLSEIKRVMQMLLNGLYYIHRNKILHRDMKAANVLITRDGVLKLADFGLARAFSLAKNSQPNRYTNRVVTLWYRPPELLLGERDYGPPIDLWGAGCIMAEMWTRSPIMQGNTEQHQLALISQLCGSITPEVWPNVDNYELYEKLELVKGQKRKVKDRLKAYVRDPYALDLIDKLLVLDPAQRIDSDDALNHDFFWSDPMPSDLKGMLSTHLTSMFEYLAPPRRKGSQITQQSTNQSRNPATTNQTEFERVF
Sequence of CDK9/CycT1 (O60563 whole entry partner): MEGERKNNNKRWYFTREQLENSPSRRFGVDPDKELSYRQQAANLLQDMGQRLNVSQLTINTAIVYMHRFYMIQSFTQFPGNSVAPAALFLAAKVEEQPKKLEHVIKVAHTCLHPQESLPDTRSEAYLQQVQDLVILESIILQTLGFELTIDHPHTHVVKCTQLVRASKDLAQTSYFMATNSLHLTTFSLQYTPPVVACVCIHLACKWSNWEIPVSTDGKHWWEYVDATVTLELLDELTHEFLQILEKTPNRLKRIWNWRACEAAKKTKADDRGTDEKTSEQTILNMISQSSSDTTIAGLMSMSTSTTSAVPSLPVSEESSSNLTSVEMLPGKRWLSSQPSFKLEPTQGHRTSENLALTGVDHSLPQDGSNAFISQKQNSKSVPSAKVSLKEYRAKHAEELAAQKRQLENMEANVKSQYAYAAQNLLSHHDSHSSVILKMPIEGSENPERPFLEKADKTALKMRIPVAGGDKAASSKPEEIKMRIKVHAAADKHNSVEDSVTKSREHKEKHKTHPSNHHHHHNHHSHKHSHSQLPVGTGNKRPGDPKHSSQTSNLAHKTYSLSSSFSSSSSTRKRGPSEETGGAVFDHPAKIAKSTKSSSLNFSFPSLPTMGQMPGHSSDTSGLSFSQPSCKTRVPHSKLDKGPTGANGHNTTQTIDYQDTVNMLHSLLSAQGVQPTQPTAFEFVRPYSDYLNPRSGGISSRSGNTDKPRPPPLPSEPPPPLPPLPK

IC50	SMILES
82 nM	CC(C)Nc1nc([C@@H](C)O)cc2cnc(NCC3CCN(S(C)(=O)=O)CC3)nc12 [Compound 68, (R)-1-(8-(isopropylamino)-2-(((1-(methylsulfonyl)piperidin-4-yl)methyl)amino)pyrido[3,4-d]pyrimidin-6-yl)ethan-1-ol]
81 nM	CC(=O)N1CCC(CNc2ncc3cc([C@@H](C)O)nc(NC(C)C)c3n2)CC1 [Compound 69, (R)-1-(4-(((6-(1-hydroxyethyl)-8-(isopropylamino)pyrido[3,4-d]pyrimidin-2-yl)amino)methyl)piperidin-1-yl)ethan-1-one]
61 nM	CC(C)Nc1nc([C@@H](C)O)cc2cnc(NCC3CCCN(S(C)(=O)=O)C3)nc12 (stereo partly drawn) [Compound 70, (1R)-1-(8-(isopropylamino)-2-(((1-(methylsulfonyl)piperidin-3-yl)methyl)amino)pyrido[3,4-d]pyrimidin-6-yl)ethan-1-ol]
97 nM	CC(=O)N[C@H]1CC[C@H](CNc2ncc3cc([C@@H](C)O)nc(NC(C)C)c3n2)CC1 [Compound 72, N-((1R,4r)-4-(((6-((R)-1-hydroxyethyl)-8-(isopropylamino)pyrido[3,4-d]pyrimidin-2-yl)amino)methyl)cyclohexyl)acetamide]
61 nM	CC(C)Nc1nc([C@@H](C)O)cc2cnc(NC[C@H]3CC[C@H](NS(C)(=O)=O)CC3)nc12 [Compound 73, N-((1R,4r)-4-(((6-((R)-1-hydroxyethyl)-8-(isopropylamino)pyrido[3,4-d]pyrimidin-2-yl)amino)methyl)cyclohexyl)methanesulfonamide]
19 nM	CC(C)Nc1nc([C@@H](C)O)cc2cnc(N[C@H]3CC[C@H](NC4CCOCC4)CC3)nc12 [Compound 74, (R)-1-(8-(isopropylamino)-2-(((1r,4R)-4-((tetrahydro-2H-pyran-4-yl)amino)cyclohexyl)amino)pyrido[3,4-d]pyrimidin-6-yl)ethan-1-ol]
36 nM	CC(C)Nc1nc([C@@H](C)O)cc2cnc(N[C@H]3CC[C@H](O)CC3)nc12 [Compound 75, (1R,4r)-4-((6-((R)-1-hydroxyethyl)-8-(isopropylamino)pyrido[3,4-d]pyrimidin-2-yl)amino)cyclohexan-1-ol]
10 nM	CC(C)Nc1nc([C@@H](C)O)cc2cnc(N[C@H]3CC[C@H](N)CC3)nc12 [Compound 76, (R)-1-(2-(((1r,4R)-4-aminocyclohexyl)amino)-8-(isopropylamino)pyrido[3,4-d]pyrimidin-6-yl)ethan-1-ol]
23 nM	CNC(=O)[C@H]1CC[C@@H](Nc2ncc3cc([C@@H](C)O)nc(NC(C)C)c3n2)C1 [Compound 79, (1S,3R)-3-((6-((R)-1-hydroxyethyl)-8-(isopropylamino)pyrido[3,4-d]pyrimidin-2-yl)amino)-N-methylcyclopentane-1-carboxamide]
12 nM	CC(C)Nc1nc([C@@H](C)O)cc2cnc(N[C@H]3CC[C@H](NC4COC4)CC3)nc12 [Compound 80, (R)-1-(8-(isopropylamino)-2-(((1r,4R)-4-(oxetan-3-ylamino)cyclohexyl)amino)pyrido[3,4-d]pyrimidin-6-yl)ethan-1-ol]
63 nM	CC(C)Nc1nc([C@@H](C)O)cc2cnc(NC[C@H]3CC[C@H](N)CC3)nc12 [Compound 82, (R)-1-(2-((((1r,4R)-4-aminocyclohexyl)methyl)amino)-8-(isopropylamino)pyrido[3,4-d]pyrimidin-6-yl)ethan-1-ol]
47 nM	CC(C)Nc1nc([C@@H](C)O)cc2cnc(NCC3CCNCC3)nc12 [Compound 84, (R)-1-(8-(isopropylamino)-2-((piperidin-4-ylmethyl)amino)pyrido[3,4-d]pyrimidin-6-yl)ethan-1-ol]
64 nM	CC(C)Nc1nc([C@@H](C)O)cc2cnc(NCCCO)nc12 [Compound 85, (R)-3-((6-(1-hydroxyethyl)-8-(isopropylamino)pyrido[3,4-d]pyrimidin-2-yl)amino)propan-1-ol]
50 nM	CC(C)Nc1nc([C@@H](C)O)cc2cnc(NC(=O)[C@@H]3CCCNC3)cc12 [Compound 86, (R)—N-(7-((R)-1-hydroxyethyl)-5-(isopropylamino)-2,6-naphthyridin-3-yl)piperidine-3-carboxamide]
44 nM	CC(=O)c1cc2cnc(N[C@H]3CC[C@H](O)CC3)nc2c(NC(C)C)n1 [Compound 88, 1-(2-(((1r,4r)-4-hydroxycyclohexyl)amino)-8-(isopropylamino)pyrido[3,4-d]pyrimidin-6-yl)ethan-1-one]
24 nM	CC(C)Nc1nccc2cnc(N[C@H]3CC[C@H](O)CC3)nc12 [Compound 89, (1r,4r)-4-((8-(isopropylamino)pyrido[3,4-d]pyrimidin-2-yl)amino)cyclohexan-1-ol]
6 nM	CC(C)Nc1nc(C(F)F)cc2cnc(N[C@H]3CC[C@H](O)CC3)nc12 [Compound 91, (1r,4r)-4-((6-(difluoromethyl)-8-(isopropylamino)pyrido[3,4-d]pyrimidin-2-yl)amino)cyclohexan-1-ol]
64 nM	Cc1cc2cnc(N[C@H]3CC[C@H](O)CC3)nc2c(NC(C)C)n1 [Compound 92, (1r,4r)-4-((8-(isopropylamino)-6-methylpyrido[3,4-d]pyrimidin-2-yl)amino)cyclohexan-1-ol]
7 nM	C#Cc1cc2cnc(N[C@H]3CC[C@H](O)CC3)nc2c(NC(C)C)n1 [Compound 93, (1r,4r)-4-((6-ethynyl-8-(isopropylamino)pyrido[3,4-d]pyrimidin-2-yl)amino)cyclohexan-1-ol]
4 nM	CC(C)Nc1nc(C#N)cc2cnc(N[C@H]3CC[C@H](O)CC3)nc12 [Compound 94, 2-(((1r,4r)-4-hydroxycyclohexyl)amino)-8-(isopropylamino)pyrido[3,4-d]pyrimidine-6-carbonitrile]
34 nM	CC(C)Nc1nc(C2COC2)cc2cnc(N[C@H]3CC[C@H](O)CC3)nc12 [Compound 95, (1r,4r)-4-((8-(isopropylamino)-6-(oxetan-3-yl)pyrido[3,4-d]pyrimidin-2-yl)amino)cyclohexan-1-ol]
17 nM	CC(C)Nc1nc(CO)cc2cnc(N[C@H]3CC[C@H](O)CC3)nc12 [Compound 97, (1r,4r)-4-((6-(hydroxymethyl)-8-(isopropylamino)pyrido[3,4-d]pyrimidin-2-yl)amino)cyclohexan-1-ol]
28 nM	CC(=O)N[C@@H]1CCC[C@H](C(=O)Nc2cc3c(NC(C)C)nc([C@@H](C)O)cc3cn2)C1 [Compound 98, (1S,3R)-3-acetamido-N-(7-((R)-1-hydroxyethyl)-5-(isopropylamino)-2,6-naphthyridin-3-yl)cyclohexane-1-carboxamide]
29 nM	C=Cc1cc2cnc(NC(=O)[C@H]3CCC[C@@H](NC(C)=O)C3)cc2c(NC(C)C)n1 [Compound 99, (1S,3R)-3-acetamido-N-(5-(isopropylamino)-7-vinyl-2,6-naphthyridin-3-yl)cyclohexane-1-carboxamide]
15 nM	CC(C)Nc1nc([C@@H](C)O)cc2cnc(N[C@H]3CC[C@H](NC4COC4)CC3)cc12 [Compound 101, (R)-1-(1-(isopropylamino)-7-(((1r,4R)-4-(oxetan-3-ylamino)cyclohexyl)amino)-2,6-naphthyridin-3-yl)ethan-1-ol]
10 nM	C[C@@H](O)c1nc(NC(C)(C)C)c2nc(N[C@H]3CC[C@H](O)CC3)ncc2c1Cl [Compound 102, (1R,4r)-4-((8-(tert-butylamino)-5-chloro-6-((R)-1-hydroxyethyl)pyrido[3,4-d]pyrimidin-2-yl)amino)cyclohexan-1-ol]
